The values that follow come from PMC8347709 (International Journal of Molecular Sciences, 2021).

One series has as its target T1, CB2R in rat spleen tissue (Rattus norvegicus, UniProt Q9QZN9).
T1 construct: from tissue; host or cells: rat spleen cryosections (female SPRD rat)
T1 sequence (Q9QZN9 1-360): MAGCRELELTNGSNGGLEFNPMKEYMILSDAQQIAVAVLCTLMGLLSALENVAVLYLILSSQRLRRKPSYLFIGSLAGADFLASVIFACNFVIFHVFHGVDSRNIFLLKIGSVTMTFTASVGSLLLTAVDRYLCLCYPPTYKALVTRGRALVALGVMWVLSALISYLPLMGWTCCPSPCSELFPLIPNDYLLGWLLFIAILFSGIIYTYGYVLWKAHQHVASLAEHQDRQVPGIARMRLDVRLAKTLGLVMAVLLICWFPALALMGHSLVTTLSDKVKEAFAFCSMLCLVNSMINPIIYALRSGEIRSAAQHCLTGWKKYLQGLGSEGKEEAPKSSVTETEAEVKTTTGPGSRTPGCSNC
Assay: not given
Details: method as in PMID 27713686. The conditions noted are these: previously reported; cited from earlier work.
Take `Fc1ccc(-c2noc(CCCNc3cnc4ccc(OCC[18F])cc4c3)n2)c(Cl)c1` [[^18F]MA3]: the “visualisation of CB2 receptors in rodent spleen tissue” value is given as “inability to visualise CB2 receptors in rodent spleen tissue”.

The target of another series is T2, hCB2R (Homo sapiens, UniProt P34972).
T2 sequence (P34972 whole entry): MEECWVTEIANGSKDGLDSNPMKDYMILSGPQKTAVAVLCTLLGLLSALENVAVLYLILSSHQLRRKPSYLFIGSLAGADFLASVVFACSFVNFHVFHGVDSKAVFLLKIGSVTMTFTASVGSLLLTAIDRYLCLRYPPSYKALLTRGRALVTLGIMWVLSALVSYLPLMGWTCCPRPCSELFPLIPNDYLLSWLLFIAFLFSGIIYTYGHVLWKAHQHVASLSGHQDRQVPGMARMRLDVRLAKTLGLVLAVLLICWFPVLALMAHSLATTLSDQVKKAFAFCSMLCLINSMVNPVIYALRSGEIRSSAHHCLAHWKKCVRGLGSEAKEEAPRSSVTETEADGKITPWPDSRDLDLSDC
Assay: not given
The following applies: HEK-293 membranes, [3H]CP-55,940; cited from earlier work.
`CC1CCC(NC(=O)c2cc3cccnc3n(CCCCF)c2=O)CC1` (stereo not shown) [compound 5, 1-(4-Fluorbutyl)-N-(4-methyl)-2-oxo-1,2-dihydro-1,8-naphthyridine-3-carboxamide]: the Ki – broadly, the dissociation constant of the complex between target and ligand, obtained from inhibition or displacement – was 1.4 nM.

The same series, now with this note: diastereomeric mixture; published value; cited from earlier work.
Turning to `CC1CCC(NC(=O)c2cc3cccnc3n(CCCCF)c2=O)CC1` (stereo not shown) [compound 5, 1-(4-Fluorbutyl)-N-(4-methyl)-2-oxo-1,2-dihydro-1,8-naphthyridine-3-carboxamide], the Ki is 1.3 nM.

System in another series: not given
Assay: not given
The following applies: cited from earlier work. Further details: method as in PMID 30342565, PMID 2173751.
As to (−)-Δ9-trans-tetrahydrocannabinol [THC], the LogD7.4 is more than 7.

A further series has as its target T2, hCB2R. The series is described as follows: competitive radioligand displacement with [3H]WIN55212-2 on hCB2-CHO membrane preparations. The format is binding. Further details: host or cells: CHO cells, stably transfected. The following applies: hCB2-CHO membranes, read-out: Ki(hCB2R). A general note: Loss of bound radioactivity is the signal in a displacement assay; it reports binding, not function.
Text: In brief, membrane preparations obtained from CHO cell lines stably transfected with either human CB1 (hCB1-CHO; obtained from Euroscreen, Gosselies, Belgium) or human CB2 (hCB2-CHO; obtained from Paul L. Prather, Department of Pharmacology and Toxicology, College of Medicine, University of Arkansas for Medical Sciences, Fayetteville, AR, USA) were used along with [^3H]SR141716A (1554 GBq/mmol; PerkinElmer Life and Analytical Sciences, Rodgau, Germany) and [^3H]WIN55212-2 (6438 GBq/mmol; PerkinElmer Life and Analytical Sciences, Rodgau, Germany), resp., as target-specific radioligands. The incubations were performed in 50 mM TRIS-HCl, pH 7.4, supplemented with 0.1% bovine serum albumin (BSA), 5 mM MgCl2, and 1 mM EDTA for 90 min at room temperature. Various concentrations of test compounds were administered, and the non-specific binding was determined in the presence of 10 μM 56. The values of bound activity were used to determine affinity (Ki) values using non-linear regression analysis (GraphPad Prism 2.01, v9, San Diego, CA, USA) and based on the KD values of [^3H]56 determined by saturation experiments [54].
Human CB2 receptors were expressed in CHO cells, and affinities were determined by competitive radioligand displacement experiments using [^3H]WIN552122. […]
Consider `C[C@H]1CC[C@H](NC(=O)c2cc3cccnc3n(CCCCF)c2=O)CC1` [trans-5], for which the Ki is 52 nM.
With `C[C@H]1CC[C@@H](NC(=O)c2cc3cccnc3n(CCCCF)c2=O)CC1` [cis-5], the Ki came out at 6 nM.

In a further series the target is CB2.
Assay: not given
Details: method as in PMID 29921889, PMID 33379862. The following applies: Figure 1; cited from earlier work.
As to `CCC(CC)(NC(=O)c1ccc(N2CC(OC)C2)c(OCC2CC2)n1)C(=O)OCCC[18F]` [[^18F]2], the Ki was 6 nM.
For `CCOCCn1cc(C(=O)NC23CC4CC(CC(C4)C2)C3)c(=O)c2cccc(O[11CH3])c21` [[^11C]RS-016], the Ki was 0.7 nM.
`CCCCOc1c(O[11CH3])ccc2cc(C(=O)NC3CCCCC3)c(=O)[nH]c12` [[^11C]NE40]: the Ki is 9.6 nM.
With `COc1cccc2c(=O)c(C(=O)NC34CC5CC(CC(C5)C3)C4)cn(CCCOCCC[18F])c12` [[^18F]AH-043], the Ki was 6.3 nM.
In the case of `Fc1ccc(-c2noc(CCCNc3cnc4ccc(OCC[18F])cc4c3)n2)c(Cl)c1` [[^18F]MA3], the Ki is 0.8 nM.
For `CCOC(=O)C(CC)(CC)NC(=O)c1ccc(N2CC(O[11CH3])C2)c(OCC2CC2)n1` [[^11C]RSR-056], the Ki is 2.5 nM.
For `CCOCCn1cc(C(=O)NC23CC4CC(CC(C4)C2)C3)c(=O)c2cccc(OCC[18F])c21` [[^18F]RS-122], the Ki is 72 nM.
In the case of `Cc1s/c(=N\C(=O)C2C(C)(C)C2(C)C)n(CCOCC[18F])c1C` [[^18F]FC024], the Ki was 0.1 nM.
Turning to `Cc1s/c(=N\C(=O)C2C(C)(C)C2(C)C)n(CCO[11CH3])c1C` [[^11C]A-836339], the Ki was 0.7 nM.
For `Cc1s/c(=N\C(=O)C2C(C)(C)C2(C)C)n(CCCC[18F])c1C` [[^18F]JHU94620], the Ki is 0.4 nM.
With `CCCCCn1cc(C(=O)NC23CC4CC(CC(C4)C2)C3)c(=O)c2cccc(O[11CH3])c21` [[^11C]KD2], the Ki is 1.7 nM.
For the compound `COc1cccc2c(=O)c(C(=O)NC34CC5CC(CC(C5)C3)C4)cn(CCOCCC[18F])c12` [[^18F]RS-126], the Ki is 1.2 nM.
On to `COc1cccc2c(=O)c(C(=O)NC34CC5CC(CC(C5)C3)C4)cn(CCOCCCC[18F])c12` [[^18F]AH-040], for which the Ki is 0.9 nM.
Take `CCCCOc1c(OCC[18F])ccc2cc(C(=O)NC3CCCCC3)c(=O)[nH]c12` [[^18F]1]: the Ki is 36 nM.
Take `[11CH3]Oc1ccc2ncc(NCCCc3nc(-c4ccc(F)cc4Cl)no3)cc2c1` [[^11C]MA2]: the Ki is 87 nM.
Consider `[2H]C([2H])([18F])C([2H])([2H])C([2H])([2H])OC(=O)C(CC)(CC)NC(=O)c1ccc(N2CC(OC)C2)c(OCC2CC2)n1` [[^18F]RoSMA-18-d6], for which the Ki was 6 nM.
